In patent US20250154145A1, “OXER1 ANTAGONISTS AND USES THEREOF” (Fairhaven Pharmaceuticals Ins., priority 2021, published 2025):
pIC50: −log10 of the molar value.

System: neutrophils
Assay: Neutrophil calcium flux assay (5-OXO-ETE-stimulated, Indo-1 fluorescence)
Assay type: cell-based
Settings: 5-OXO-ETE-stimulated calcium flux
Outline: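 Indo-1-loaded neutrophils (5×10^6 cells/ml, 30 min at 37 °C) in HBSS with Ca/Mg and HEPES, pre-incubated 5 min with antagonist or buffer. Stimulated with 5-OXO-ETE added at 200 nM (4× stock); fluorescence (ex 331/em 410 nm) read every 5 s for 30 cycles, expressed as net fluorescence.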

| SMILES | pIC50 (Neutrophil) | pIC50 |
| --- | --- | --- |
| Cn1c(CCCCCCC#CC2CC(F)(F)C2)c(C(=O)N2CC[C@H](C(=O)O)C2)c2cc(Cl)ccc21 [Compound I-339] | > 7.00 | – |
| CC(CC(=O)O)CC(=O)n1c(CCCCCCc2cccc(Cl)c2)cc2ncc(Cl)cc21 (centres unmarked) [Compound I-468] | – | < 6.52 |
| Cn1c(CCCCCCc2cccc(Cl)c2)c(C(=O)N2CCC(C)(C(=O)O)C2)c2cc(Cl)ccc21 (centres unmarked) [Compound I-157] | < 6.52 | – |
| CC(CC(=O)O)CC(=O)c1c(CCCCO)n(C)c2ncc(C#N)cc12 (centres unmarked) [Compound I-429] | < 6.52 | – |
| C[C@@H](CC(=O)O)CC(=O)c1c(CCCCOCc2ccccc2)n(C)c2ncc(C#N)cc12 [Compound I-106] | < 6.52 | – |
| CC(C)[C@@H](CC(=O)O)CC(=O)c1c(CCCCOCc2ccccc2)n(C)c2ncc(C#N)cc12 [Compound I-437] | < 6.52 | – |
| C[C@@H](CC(=O)c1c(CCCCCCC#CC2CC(F)(F)C2)n(C)c2ccc(Cl)cc12)Cc1nnn[nH]1 [Compound I-352] | > 7.00 | – |
| C[C@H](CC(=O)O)N(C)C(=O)c1c(CCCCCCc2cccc(Cl)c2)n(C)c2ccc(Cl)cc12 [Compound I-239] | < 6.52 | – |
| CC(CC(=O)O)CC(=O)c1c2cc(C#N)cnc2n(C)c1[C@H]1CC[C@H](OCc2cccc(Cl)c2)CC1 (some centres unmarked) [Compound I-367] | < 6.52 | – |
| C[C@@H]1[C@@H](C(=O)O)CCN1C(=O)c1c(CCCCCCC#CC2CC(F)(F)C2)n(C)c2ncc(C#N)cc12 [Compound I-346] | > 7.00 | – |
| C[C@H](CC(=O)O)CC(=O)c1c(CCCCCNc2cccnc2)n(C)c2ccc(Cl)cc12 [Compound I-141] | < 6.52 | – |
| C[C@H](CC(=O)O)N(C)C(=O)c1c(CCCCOCc2cccc(Cl)c2)n(C)c2ncc(C#N)cc12 [Compound I-240] | < 6.52 | – |
| C[C@@H](CC(=O)O)CC(=O)c1c(CCCCO[C@@H](C)c2ccccc2)n(C)c2ncc(C#N)cc12 [Compound I-431] | < 6.52 | – |
| C[C@H](CC(=O)O)CC(=O)c1c(CCCCOCC23CC(C#N)(C2)C3)n(C)c2ccc(Cl)cc12 [Compound I-108] | 6.52 to 7.00 | – |
| C[C@@H](CC(=O)O)CC(=O)c1c(CCCCOCc2cccc(Cl)c2)n(C)c2cnc(Cl)cc12 [Compound I-411] | < 6.52 | – |
| C[C@@H](CC(=O)NO)CC(=O)c1c(CCCCCCc2cccc(Cl)c2)n(C)c2ccc(Cl)cc12 [Compound I-18] | < 6.52 | – |
| Cn1c(CCCCCC(O)c2cccc(Cl)c2)c(C(=O)N2CC[C@H](c3nnn[nH]3)C2)c2cc(C#N)cnc21 (some centres unmarked) [Compound I-225] | 6.52 to 7.00 | – |
| C[C@@H](CC(=O)O)CC(=O)c1c(CCCCCCc2cncs2)n(C)c2ncc(C#N)cc12 [Compound I-372] | < 6.52 | – |
| CC(CC(=O)O)CC(=O)c1c(CCCCOCc2cccc(C#N)c2)n(C)c2c(F)cc(C#N)cc12 (centres unmarked) [Compound I-414] | < 6.52 | – |
| [2H]C([2H])([2H])n1c(CCCCOCc2ccccc2)c(C(=O)CC(C)CC(=O)O)c2cc(C#N)cnc21 (centres unmarked) [Compound I-420] | > 7.00 | – |
| Cn1c(CCCCCCC#CC2CC(F)(F)C2)c(C(=O)N2CC[C@H](C(=O)NCCS(=O)(=O)O)C2)c2cc(C#N)cnc21 [Compound I-464] | < 6.52 | – |
| C[C@@H](CC(=O)O)CC(=O)c1c(CCCCOCc2cccc(C#N)c2)n(C)c2cnccc12 [Compound I-395] | < 6.52 | – |
| CC(CC(=O)O)CC(=O)c1c(CCCCOCc2cccc(C(=O)N(C)C)c2)n(C)c2ncc(C#N)cc12 (centres unmarked) [Compound I-370] | > 7.00 | – |
| Cn1c(-c2ccccc2Cl)cc(C(=O)N2CC[C@H](C(=O)O)C2)c1CCCCOCc1cccc(Cl)c1 [Compound I-171] | < 6.52 | – |
| COc1nccc(COCCCCc2c(C(=O)CC(C)CC(=O)O)c3cc(Cl)cnc3n2C)n1 (centres unmarked) [Compound I-448] | < 6.52 | – |

| SMILES | pIC50 (Neutrophil) | pIC50 |
| --- | --- | --- |
| CC(CC(=O)O)CC(=O)c1c2cc(C#N)cnc2n(C)c1[C@H]1CC[C@@H](COCc2cccc(Cl)c2)CC1 (some centres unmarked) [Compound I-400] | < 6.52 | – |
| Cn1c(CCCOCCc2cccc(Cl)c2)c(C(=O)N2CC[C@H](C(=O)O)C2)c2cc(Cl)cnc21 [Compound I-174] | < 6.52 | – |
| CC(CC(=O)O)CC(=O)c1c(CCCCCC(O)c2ccc(F)cc2)n(C)c2ncc(C#N)cc12 (centres unmarked) [Compound I-311] | < 6.52 | – |
| Cn1c(CCCCCCCC#CC2CC(F)(F)C2)c(C(=O)N2CC[C@H](C(=O)O)C2)c2cc(Br)cnc21 [Compound I-350] | < 6.52 | – |
| C[C@H](CC(=O)O)CC(=O)c1c(CCCCC(=O)Nc2cc(Cl)ccc2O)n(C)c2ccc(Cl)cc12 [Compound I-146] | 6.52 to 7.00 | – |
| Cn1c(CCCCOCc2cccc(Cl)c2)c(C(=O)N2CC[C@H](c3nnn[nH]3)C2)c2cc(C#N)cnc21 [Compound I-224] | 6.52 to 7.00 | – |
| C[C@H](CC(=O)NCCS(=O)(=O)O)CC(=O)c1c(CCCCOCc2ccccc2)n(C)c2ncc(C#N)cc12 [Compound I-461] | < 6.52 | – |
| Cn1c(CCCCCCc2cccc(Cl)c2)c(CN2CC[C@H](C(=O)O)C2)c2cc(Cl)ccc21 [Compound I-303] | < 6.52 | – |
| C[C@H](CC(=O)O)CC(=O)c1c(CCCCCCC#CC2CC(F)(F)C2)[nH]c2ccc(Cl)cc12 [Compound I-323] | > 7.00 | – |
| C[C@H](CC(=O)O)CC(=O)c1c(CCCCOCc2cccc(C#N)c2)n(C)c2ccncc12 [Compound I-396] | > 7.00 | – |
| C[C@H](CC(=O)O)CC(=O)c1c(CCCCOCc2cccc(C#N)c2)n(C)c2ncc(F)cc12 [Compound I-416] | 6.52 to 7.00 | – |
| CC[C@@H](CC(=O)O)CC(=O)c1c(CCCCOCc2ccccc2)n(C)c2ncc(C#N)cc12 [Compound I-439] | < 6.52 | – |
| C[C@@H](CC(=O)O)CC(=O)c1c(CCCCOCc2ccc(F)cc2)n(C)c2ncc(C#N)cc12 [Compound I-369] | < 6.52 | – |
| C[C@H](CC(=O)O)CC(=O)c1c(CCCCOCc2cccc(C#N)c2)n(C)c2cc(F)ccc12 [Compound I-413] | > 7.00 | – |
| C[C@H](CC(=O)O)CC(=O)c1c(CCCCCCc2cccc(Cl)c2)[nH]c2ccc(Cl)cc12 [Compound I-144] | > 7.00 | – |
| C[C@@H](CC(=O)O)CC(=O)c1c(CCCCOCc2cccc(Cl)c2)n(C)c2ccc(C#N)cc12 [Compound I-469] | 6.52 to 7.00 | – |
| CC(CC(=O)O)CC(=O)c1c(CCCCC#Cc2ccc(F)nc2)n(C)c2ncc(Cl)cc12 (centres unmarked) [Compound I-227] | < 6.52 | – |
| Cn1c(CCCCCCc2cccc(Cl)c2)c(C(=O)N2CC[C@H](C(=O)NS(C)(=O)=O)C2)c2cc(C#N)cnc21 [Compound I-361] | < 6.52 | – |
| CC(CC(=O)O)CC(=O)c1c(CCCCCC(O)c2cccc(C(=O)N(C)C)c2)n(C)c2ncc(C#N)cc12 (single isomer, unassigned) [Compound I-315] | – | < 6.52 |
| CC(CC(=O)O)CC(=O)c1c(CCCCOCc2cccc(F)c2)n(C)c2ncc(C#N)cc12 (centres unmarked) [Compound I-231] | > 7.00 | – |
| Cn1c(CCCCCCc2cccc(Cl)c2)c(C(=O)N2CCC[C@H](C(=O)O)C2)c2cc(Cl)ccc21 [Compound I-155] | 6.52 to 7.00 | – |
| C[C@H](CC(=O)O)CC(=O)c1c(CCCCCNc2cccnc2)n(C)c2ncc(Cl)cc12 [Compound I-140] | < 6.52 | – |
| CCC#CCCCCCCc1c(C(=O)C[C@H](C)CC(=O)O)c2cc(Cl)ccc2n1C [Compound I-116] | > 7.00 | – |
| C[C@H](CC(=O)O)CC(=O)c1c(CCOCCCC#CC2CC(F)(F)C2)n(C)c2ccc(Cl)cc12 [Compound I-326] | > 7.00 | – |
| CC(CC(=O)O)CC(=O)c1c(CCCCCCC#CC2CC(F)(F)C2)n(C)c2ncc(C#N)cc12 (centres unmarked) [Compound I-322] | > 7.00 | – |
